According to US20240132431A1, “METHOD FOR ALKYLATING ACIDIC FUNCTIONAL GROUP” (Chugai Seiyaku Kabushiki Kaisha, priority 2021, published 2024):
Values belong to the compound of their own block, whether it stands above or below them.

Target: T1, Bcl-2 protein (Recombinant Human Bcl-2 Protein) (Homo sapiens, UniProt P10415)
T1 construct: purchased Novus NBP2-34889
Assay: Binding evaluation of mixture library compounds to Bcl-2 using AS-MS (affinity selection mass spectrometry)
Settings: for ASMS ratio (%) n = 1: replicate n = 1; for ASMS ratio (%) n = 1 / ASMS ratio (%) n = 2: ASMS Ratio(%)=(A−C)/B×100; for ASMS ratio (%) n = 2: replicate n = 2
How it was run: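 Bcl-2 binding is scored from LC/MS signal retained with protein through gel-filtration spin columns, normalised to unfiltered and protein-free controls. Incubation: 20 μM protein, […] per compound, 1 h, 23° C.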

[1] = AS-MS on the mixture of 1200 library compounds
[2] = AS-MS, mixture of 1200 compounds, Bcl-2

T1 sequence (P10415 whole entry): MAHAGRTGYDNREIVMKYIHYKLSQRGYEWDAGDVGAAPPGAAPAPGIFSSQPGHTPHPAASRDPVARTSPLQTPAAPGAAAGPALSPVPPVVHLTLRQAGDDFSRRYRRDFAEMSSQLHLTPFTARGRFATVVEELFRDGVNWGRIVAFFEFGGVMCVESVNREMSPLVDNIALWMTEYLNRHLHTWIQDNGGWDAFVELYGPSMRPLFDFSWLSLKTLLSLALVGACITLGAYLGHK

ASMS ratio (%) n = 1 (AS-MS, mixture library, Bcl-2): 4.5%
ASMS ratio (%) n = 2 (AS-MS, mixture library, Bcl-2): 7.5%
Compound: CCOc1cncc(-c2csc(C(=O)N3CCN(c4ccc(C(=O)NS(=O)(=O)c5ccc(NCCSc6ccccc6)c([N+](=O)[O-])c5)cc4)CC3)c2)c1 [B2Q024-01, 4-[4-[4-(5-Ethoxypyridin-3-yl)thiophene-2-carbonyl]piperazin-1-yl]-N-[3-nitro-4-(2-phenylsulfanylethylamino)phenyl]sulfonylbenzamide]

ASMS ratio (%) (n = 1): 0.0%
ASMS ratio (%) (n = 2): 0.0%
Compound: CCOc1cncc(-c2ccc(C(=O)N3CCN(c4ccc(C(=O)NS(=O)(=O)CCC(F)(F)F)nn4)CC3)c3ccccc23)c1 [B2N014-01, 6-[4-[4-(5-Ethoxypyridin-3-yl)naphthalene-1-carbonyl]piperazin-1-yl]-N-(3,3,3-trifluoropropylsulfonyl)pyridazine-3-carboxamide]

ASMS ratio (%) n = 1 [1]: 10.4%
ASMS ratio (%) n = 2 [1]: −2.8%
Compound: CCOc1cccc(C#Cc2cc(C(=O)N3CCN(c4ccc(C(=O)Nc5ccc(OC)cc5)cc4)CC3)cc(C(F)(F)F)c2)c1 [B1O041-01, 4-[4-[3-[2-(3-Ethoxyphenyl)ethynyl]-5-(trifluoromethyl)benzoyl]piperazin-1-yl]-N-(4-methoxyphenyl)benzamide]

ASMS ratio (%) n = 1 (AS-MS, mixture library, Bcl-2): 14.3%
ASMS ratio (%) n = 2 (AS-MS, mixture library, Bcl-2): 21.9%
Compound: CCOc1cccc(-c2ccc(CN3CCN(c4ccc(C(=O)NS(=O)(=O)CC56CC7CC(CC(C7)C5)C6)nn4)CC3)cc2F)c1 [B2A077-01, N-(1-Adamantylmethylsulfonyl)-6-[4-[[4-(3-ethoxyphenyl)-3-fluorophenyl]methyl]piperazin-1-yl]pyridazine-3-carboxamide]

ASMS ratio (%) (n = 1): 14.5%
ASMS ratio (%) (n = 2): 15.8%
Compound: CCOc1cncc(-c2cnn(-c3cc(C(=O)N4CCN(c5ccc(C(=O)NS(=O)(=O)c6ccc(NCCSc7ccccc7)c(C(F)(F)F)c6)nn5)CC4)cc(C(F)(F)F)c3)c2)c1 [B2R022-01, 6-[4-[3-[4-(5-Ethoxypyridin-3-yl)pyrazol-1-yl]-5-(trifluoromethyl)benzoyl]piperazin-1-yl]-N-[4-(2-phenylsulfanylethylamino)-3-(trifluoromethyl)phenyl]sulfonylpyridazine-3-carboxamide]

ASMS ratio (%) n = 1 (AS-MS, mixture library, Bcl-2): 5.1%
ASMS ratio (%) n = 2 (AS-MS, mixture library, Bcl-2): 0.0%
Compound: CCOc1cncc(-c2cc(C(=O)N3CCN(c4ccc(C(=O)NS(=O)(=O)CC56CC7CC(CC(C7)C5)C6)nn4)CC3)cc(C(F)(F)F)c2)c1 [B2A018-01, N-(1-Adamantylmethylsulfonyl)-6-[4-[3-(5-ethoxypyridin-3-yl)-5-(trifluoromethyl)benzoyl]piperazin-1-yl]pyridazine-3-carboxamide]

ASMS ratio (%) (n = 1): 0.0%
ASMS ratio (%) (n = 2): 0.0%
Compound: CCOc1cncc(C#Cc2ccccc2CN2CCN(c3ccc(C(=O)NS(=O)(=O)CCC(F)(F)F)cc3)CC2)c1 [B2N070-01, 4-[4-[[2-[2-(5-Ethoxypyridin-3-yl)ethynyl]phenyl]methyl]piperazin-1-yl]-N-(3,3,3-trifluoropropylsulfonyl)benzamide]

ASMS ratio (%) n = 1 [1]: 0.6%
ASMS ratio (%) n = 2 [1]: 0.8%
Compound: CCOc1cncc(-c2ccc(C(=O)N3CCN(c4ccc(C(=O)N(C)CC56CC7CC(CC(C7)C5)C6)nn4)CC3)c3ccccc23)c1 [B3A014-01, N-(1-Adamantylmethyl)-6-[4-[4-(5-ethoxypyridin-3-yl)naphthalene-1-carbonyl]piperazin-1-yl]-N-methylpyridazine-3-carboxamide]

ASMS ratio (%) n = 1 [2]: 0.0%
ASMS ratio (%) n = 2 [2]: 0.0%
Compound: CCOc1cccc(-c2cc(CN3CCN(c4ccc(C(=O)NCC(F)(F)F)nn4)CC3)cc(OC(C)C)c2)c1 [B1K083-01]

ASMS ratio (%) n = 1 (AS-MS, mixture library, Bcl-2): 0.0%
ASMS ratio (%) n = 2 (AS-MS, mixture library, Bcl-2): 0.0%
Compound: CCOc1cccc(-c2ccc(C(=O)N3CCN(c4ccc(C(=O)NS(C)(=O)=O)nn4)CC3)cc2F)c1 [B2I005-01, 6-[4-[4-(3-Ethoxyphenyl)-3-fluorobenzoyl]piperazin-1-yl]-N-methylsulfonylpyridazine-3-carboxamide]

Second part, the compound before the results:

Compound: CCOc1cccc(-c2ccc(CN3CCN(c4ccc(C(=O)Nc5ccc(OC)cc5)cc4)CC3)c3ccccc23)c1 [B1O065-01, 4-[4-[[4-(3-Ethoxyphenyl)naphthalen-1-yl]methyl]piperazin-1-yl]-N-(4-methoxyphenyl)benzamide]
ASMS ratio (%) n = 1 [1]: 7.5%
ASMS ratio (%) n = 2 [1]: 0.8%

Compound: CCOc1cccc(C#Cc2ccccc2CN2CCN(c3ccc(C(=O)NS(=O)(=O)CC45CC6CC(CC(C6)C4)C5)cc3)CC2)c1 [B2A069-01, N-(1-Adamantylmethylsulfonyl)-4-[4-[[2-[2-(3-ethoxyphenyl)ethynyl]phenyl]methyl]piperazin-1-yl]benzamide]
ASMS ratio (%) n = 1 (AS-MS, mixture library, Bcl-2): 4.6%
ASMS ratio (%) n = 2 (AS-MS, mixture library, Bcl-2): −4.6%

Compound: CCOc1cncc(-c2ccc(CN3CCN(c4ccc(C(=O)N(CC)CC)cc4)CC3)c(CC)c2)c1 [B4J050-01, 4-[4-[[4-(5-Ethoxypyridin-3-yl)-2-ethylphenyl]methyl]piperazin-1-yl]-N,N-diethylbenzamide]
ASMS ratio (%) n = 1 [1]: 2.1%
ASMS ratio (%) n = 2 [1]: 0.6%

Compound: CCOc1cccc(C#Cc2ccccc2C(=O)N2CCN(c3ccc(C(=O)NCC45CC6CC(CC(C6)C4)C5)nn3)CC2)c1 [B1A007-01, N-(1-Adamantylmethyl)-6-[4-[2-[2-(3-ethoxyphenyl)ethynyl]benzoyl]piperazin-1-yl]pyridazine-3-carboxamide]
ASMS ratio (%) n = 1 [2]: 0.0%

Compound: 6-[4-[3-[2-(5-Ethoxypyridin-3-yl)phenyl]propanoyl]piperazin-1-yl]-N-propylpyridazine-3-carboxamide [B1M077-01]
ASMS ratio (%) n = 1 [2]: −0.7%
ASMS ratio (%) n = 2 [2]: 3.1%

Compound: CCOc1cncc(-c2ccc(C(=O)N3CCN(c4ccc(C(=O)NS(=O)(=O)CC56CC7CC(CC(C7)C5)C6)nn4)CC3)cc2F)c1 [B2A006-01, N-(1-Adamantylmethylsulfonyl)-6-[4-[4-(5-ethoxypyridin-3-yl)-3-fluorobenzoyl]piperazin-1-yl]pyridazine-3-carboxamide]
ASMS ratio (%) n = 1 (AS-MS, mixture library, Bcl-2): 0.0%
ASMS ratio (%) n = 2 (AS-MS, mixture library, Bcl-2): 0.0%

Compound: CCOc1cccc(-c2cc(CN3CCN(c4ccc(C(=O)NCC(F)(F)F)nn4)CC3)cc(OC(F)(F)F)c2)c1 [B1K089-01, 6-[4-[[3-(3-Ethoxyphenyl)-5-(trifluoromethoxy)phenyl]methyl]piperazin-1-yl]-N-(2,2,2-trifluoroethyl)pyridazine-3-carboxamide]
ASMS ratio (%) n = 1 [2]: 2.0%
ASMS ratio (%) n = 2 [2]: 1.0%

Compound: CCOc1cccc(C#Cc2cc(C(=O)N3CCN(c4ccc(C(=O)NS(C)(=O)=O)nn4)CC3)cc(C(F)(F)F)c2)c1 [B2I019-01, 6-[4-[3-[2-(3-Ethoxyphenyl)ethynyl]-5-(trifluoromethyl)benzoyl]piperazin-1-yl]-N-methylsulfonylpyridazine-3-carboxamide]
ASMS ratio (%) n = 1 (AS-MS, mixture library, Bcl-2): 0.0%

Compound: CCOc1cncc(-c2ccc(CN3CCN(c4ccc(C(=O)N(C)CC56CC7CC(CC(C7)C5)C6)cc4)CC3)c(CC)c2)c1 [B3A050-01, N-(1-Adamantylmethyl)-4-[4-[[4-(5-ethoxypyridin-3-yl)-2-ethylphenyl]methyl]piperazin-1-yl]-N-methylbenzamide]
ASMS ratio (%) n = 1 [1]: 6.1%
ASMS ratio (%) n = 2 [1]: −4.3%

Compound: CCOc1cncc(-c2cc(CN3CCN(c4ccc(C(=O)NS(=O)(=O)c5ccc(NCCSc6ccccc6)c([N+](=O)[O-])c5)cc4)CC3)cc(C(F)(F)F)c2)c1 [B2Q062-01, 4-[4-[[3-(5-Ethoxypyridin-3-yl)-5-(trifluoromethyl)phenyl]methyl]piperazin-1-yl]-N-[3-nitro-4-(2-phenylsulfanylethylamino)phenyl]sulfonylbenzamide]
ASMS ratio (%) n = 1 (AS-MS, mixture library, Bcl-2): 9.4%
ASMS ratio (%) n = 2 (AS-MS, mixture library, Bcl-2): −3.3%

Compound: CCOc1cccc(-c2cc(CN3CCN(c4ccc(C(=O)N(CC)CC)nn4)CC3)cc(OC(F)(F)F)c2)c1 [B4J089-01, 6-[4-[[3-(3-Ethoxyphenyl)-5-(trifluoromethoxy)phenyl]methyl]piperazin-1-yl]-N,N-diethylpyridazine-3-carboxamide]
ASMS ratio (%) n = 1 (AS-MS, mixture library, Bcl-2): 3.9%
ASMS ratio (%) n = 2 (AS-MS, mixture library, Bcl-2): 0.4%

Compound: CCOc1cncc(-c2ccc(CN3CCN(c4ccc(C(=O)NS(=O)(=O)CCC(F)(F)F)cc4)CC3)c(OC)c2)c1 [B2N054-01, 4-[4-[[4-(5-Ethoxypyridin-3-yl)-2-methoxyphenyl]methyl]piperazin-1-yl]-N-(3,3,3-trifluoropropylsulfonyl)benzamide]
ASMS ratio (%) (n = 1): 0.0%
ASMS ratio (%) (n = 2): 0.0%

Compound: CCOc1cncc(-c2cc(C(=O)N3CCN(c4ccc(C(=O)N(C)CC56CC7CC(CC(C7)C5)C6)cc4)CC3)cc(C(F)(F)F)c2)c1 [B3A040-01, N-(1-Adamantylmethyl)-4-[4-[3-(5-ethoxypyridin-3-yl)-5-(trifluoromethyl)benzoyl]piperazin-1-yl]-N-methylbenzamide]
ASMS ratio (%) n = 1 [1]: 3.5%
ASMS ratio (%) n = 2 [1]: −6.7%

Compound: CCOc1cccc(-c2csc(C(=O)N3CCN(c4ccc(C(=O)NS(=O)(=O)C(C)(C)C)nn4)CC3)c2)c1 [B2L001-01, N-tert-Butylsulfonyl-6-[4-[4-(3-ethoxyphenyl)thiophene-2-carbonyl]piperazin-1-yl]pyridazine-3-carboxamide]
ASMS ratio (%) (n = 1): −67.5%
ASMS ratio (%) (n = 2): 0.0%

Compound: CCOc1cccc(-c2cc(CN3CCN(c4ccc(C(=O)NS(=O)(=O)c5ccc(NCCSc6ccccc6)c(C(F)(F)F)c5)cc4)CC3)cc(OCC)c2)c1 [B2R055-01, 4-[4-[[3-Ethoxy-5-(3-ethoxyphenyl)phenyl]methyl]piperazin-1-yl]-N-[4-(2-phenylsulfanylethylamino)-3-(trifluoromethyl)phenyl]sulfonylbenzamide]
ASMS ratio (%) (n = 1): −3.3%
ASMS ratio (%) (n = 2): 6.3%
